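These data come from cells grown in 96-well plates and exposed to compound for 48 hours at five concentrations. GI50 = concentration required for 50% inhibition of growth.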 The source made the active and inactive calls. Rule as the data show it: active = GI50 up to about 1.1 µM and inactive = higher.
How the values were obtained:
Assay in all cases: NCI-60 cell line screen, 48 h
MCF7 = test system: MCF7
DU-145 = test system: DU-145
SK-MEL-2 = test system: SK-MEL-2
SW-620 = test system: SW-620
IGROV-1 = test system: IGROV-1
Malme-3M = test system: Malme-3M
CCRF-CEM = test system: CCRF-CEM
PC-3 = test system: PC-3
MDA-MB-231 = test system: MDA-MB-231
ACHN = test system: ACHN
SK-MEL-28 = test system: SK-MEL-28
KM12 = test system: KM12
T47D = test system: T47D
M14 = test system: M14
HCT-116 = test system: HCT-116
HT-29 = test system: HT-29
OVCAR-5 = test system: OVCAR-5
HL-60 = test system: HL-60
RXF 393 = test system: RXF 393
HCC 2998 = test system: HCC 2998

Measured: GI50

O=C(O)C1(Nc2ccc(Cl)cc2)CCCC1
inactive: MCF7 > 100 µM | DU-145 > 100 µM | SK-MEL-2 > 100 µM | SW-620 > 100 µM | IGROV-1 > 100 µM | Malme-3M > 100 µM | CCRF-CEM > 100 µM | PC-3 > 100 µM | MDA-MB-231 > 100 µM | ACHN > 100 µM | SK-MEL-28 > 100 µM | KM12 > 100 µM | T47D > 100 µM | M14 > 100 µM | HCT-116 76.4 µM | HT-29 > 100 µM | OVCAR-5 > 100 µM | HL-60 77.8 µM | RXF 393 > 100 µM

O=C1CCC(=O)N1n1c(Cc2ccc(Cl)cc2)n[nH]c1=O
inactive: MCF7 > 100 µM | DU-145 > 100 µM | SK-MEL-2 > 100 µM | SW-620 > 100 µM | IGROV-1 > 100 µM | Malme-3M > 100 µM | PC-3 > 100 µM | MDA-MB-231 > 100 µM | ACHN > 100 µM | SK-MEL-28 > 100 µM | KM12 > 100 µM | T47D > 100 µM | M14 > 100 µM | HCT-116 > 100 µM | HT-29 > 100 µM | OVCAR-5 > 100 µM | HL-60 > 100 µM | HCC 2998 > 100 µM

Cc1ccc(N2C(=O)C3c4[nH]c5ccc(C)cc5c4C4CCC(C(C)(C)C)CC4C3C2=O)cc1 (stereo unspecified)
inactive: MCF7 11.3 µM | DU-145 17.8 µM | SK-MEL-2 35.8 µM | SW-620 12.1 µM | IGROV-1 13.1 µM | Malme-3M 14 µM | CCRF-CEM 7.59 µM | PC-3 16.6 µM | MDA-MB-231 10.3 µM | SK-MEL-28 22.4 µM | KM12 18 µM | T47D 7.5 µM | M14 31 µM | HCT-116 14.3 µM | HT-29 15.6 µM | OVCAR-5 11.3 µM | HL-60 17.3 µM

CCOC(=O)C1=CN2C(=N[C@H]3CCCC[C@@H]32)NC1=O
inactive: MCF7 > 100 µM | DU-145 > 100 µM | SK-MEL-2 > 100 µM | SW-620 > 100 µM | IGROV-1 > 100 µM | Malme-3M > 100 µM | CCRF-CEM > 100 µM | PC-3 > 100 µM | MDA-MB-231 > 100 µM | ACHN > 100 µM | SK-MEL-28 > 100 µM | KM12 > 100 µM | T47D > 100 µM | M14 > 100 µM | HCT-116 > 100 µM | HT-29 > 100 µM | OVCAR-5 > 100 µM | HL-60 > 100 µM | HCC 2998 > 100 µM

CCc1n[nH]c(=O)n1/N=C(\C)c1ccccc1
inactive: MCF7 > 100 µM | DU-145 > 100 µM | SK-MEL-2 > 100 µM | SW-620 > 100 µM | IGROV-1 > 100 µM | Malme-3M > 100 µM | CCRF-CEM > 100 µM | PC-3 > 100 µM | MDA-MB-231 > 100 µM | ACHN > 100 µM | SK-MEL-28 > 100 µM | KM12 > 100 µM | T47D > 100 µM | M14 > 100 µM | HCT-116 > 100 µM | HT-29 > 100 µM | OVCAR-5 > 100 µM | HL-60 > 100 µM | RXF 393 > 100 µM

CC1(C)CC2=NOS3=C2C(=NO3)C1c1ccccn1 (stereo unspecified)
inactive: MCF7 > 100 µM | DU-145 > 100 µM | SK-MEL-2 > 100 µM | SW-620 69.5 µM | IGROV-1 29.6 µM | Malme-3M 46.9 µM | CCRF-CEM 29 µM | PC-3 > 100 µM | MDA-MB-231 > 100 µM | ACHN 74.8 µM | SK-MEL-28 > 100 µM | KM12 61.2 µM | T47D > 100 µM | M14 40.7 µM | HCT-116 48.8 µM | HT-29 56.8 µM | OVCAR-5 > 100 µM | HL-60 24.3 µM | HCC 2998 > 100 µM

C[C@]12CC/C(=N\OCCN3CCCCC3)C=C1CCC1C2CC[C@@]2(C)C1CC[C@]2(C)O (stereo partly specified)
inactive: MCF7 4.75 µM | DU-145 13.2 µM | SK-MEL-2 13.1 µM | SW-620 5.65 µM | IGROV-1 11.9 µM | Malme-3M 11.2 µM | CCRF-CEM 3.2 µM | PC-3 10.8 µM | MDA-MB-231 11.7 µM | ACHN 11.4 µM | SK-MEL-28 11.2 µM | KM12 10.4 µM | T47D 13.1 µM | M14 14.2 µM | HCT-116 7.38 µM | HT-29 2.28 µM | OVCAR-5 19.6 µM | HCC 2998 9.27 µM | RXF 393 16.2 µM

COc1ccc([C@H]2C=C(c3cc(F)c(Cl)cc3Cl)N=c3s/c(=C\c4ccc(-c5ccc(Cl)cc5Cl)o4)c(=O)n32)cc1
inactive: MCF7 26.9 µM | DU-145 71 µM | SK-MEL-2 20.1 µM | SW-620 51.1 µM | IGROV-1 30.3 µM | Malme-3M 99.1 µM | PC-3 99.3 µM | MDA-MB-231 25.5 µM | ACHN > 100 µM | SK-MEL-28 > 100 µM | KM12 60.1 µM | T47D 19.6 µM | M14 55.3 µM | HCT-116 35.1 µM | HT-29 37.2 µM | OVCAR-5 39.4 µM | HCC 2998 20.1 µM | RXF 393 39.6 µM

Nc1cc(CO)cc(Nc2c3ccccc3nc3ccccc23)c1
inactive: MCF7 15.5 µM | DU-145 27.3 µM | SK-MEL-2 14.1 µM | SW-620 12.8 µM | IGROV-1 16.9 µM | Malme-3M 16.5 µM | CCRF-CEM 6.78 µM | PC-3 15.5 µM | MDA-MB-231 12.1 µM | ACHN 17.2 µM | SK-MEL-28 17.8 µM | KM12 16.3 µM | T47D 18.4 µM | M14 17.3 µM | HCT-116 15.1 µM | HT-29 14.7 µM | OVCAR-5 16.7 µM | HL-60 > 100 µM | RXF 393 16.8 µM

O=C(O)[C@H]1CCCN1CP(=O)(O)CN1CCC[C@@H]1C(=O)O
inactive: MCF7 > 100 µM | DU-145 > 100 µM | SK-MEL-2 > 100 µM | SW-620 > 100 µM | IGROV-1 > 100 µM | Malme-3M > 100 µM | CCRF-CEM > 100 µM | PC-3 > 100 µM | MDA-MB-231 > 100 µM | ACHN > 100 µM | SK-MEL-28 > 100 µM | KM12 > 100 µM | T47D > 100 µM | M14 > 100 µM | HCT-116 > 100 µM | HT-29 > 100 µM | OVCAR-5 > 100 µM | HL-60 > 100 µM | RXF 393 > 100 µM

c1ccc(C[N+]23C(CC[C@H]2c2ccccc2)CC[C@H]3c2ccccc2)cc1 (stereo partly specified)
inactive: MCF7 24.4 µM | DU-145 32.9 µM | SK-MEL-2 29.9 µM | SW-620 43.4 µM | IGROV-1 21.6 µM | Malme-3M 18.2 µM | CCRF-CEM 27.4 µM | PC-3 26.7 µM | MDA-MB-231 34.9 µM | ACHN > 100 µM | SK-MEL-28 34.6 µM | KM12 21.8 µM | T47D 8.47 µM | M14 21.6 µM | HCT-116 28.8 µM | HT-29 17.9 µM | OVCAR-5 86.1 µM | HL-60 11.2 µM | RXF 393 18.3 µM

CC(C)[Si](OC12CCC(CC1O)CC2CO)(C(C)C)C(C)C (stereo unspecified)
inactive: MCF7 12 µM | DU-145 16.9 µM | SK-MEL-2 15.8 µM | SW-620 21.1 µM | CCRF-CEM 13.4 µM | PC-3 11.8 µM | MDA-MB-231 19.7 µM | ACHN 14.2 µM | SK-MEL-28 20.4 µM | KM12 12.7 µM | T47D 9.77 µM | M14 15.1 µM | HCT-116 8 µM | HT-29 15.5 µM | OVCAR-5 17.4 µM | HL-60 1.34 µM

C#CCn1c(=O)c(Cl)cn(/C(=C/C(=O)OCC)C(=O)OCC)c1=O
inactive: MCF7 8.45 µM | DU-145 18.6 µM | SK-MEL-2 17.4 µM | SW-620 2.22 µM | IGROV-1 17.3 µM | Malme-3M 3.86 µM | CCRF-CEM 5.2 µM | PC-3 16.6 µM | MDA-MB-231 18.2 µM | ACHN 2.03 µM | SK-MEL-28 19 µM | KM12 31.9 µM | T47D 2.34 µM | M14 6.98 µM | HCT-116 4.69 µM | HT-29 18.4 µM | OVCAR-5 16.9 µM | HL-60 3.05 µM | RXF 393 2.12 µM

COc1ccc(NC(=O)CC(=O)NN)cc1
inactive: MCF7 > 100 µM | DU-145 > 100 µM | SK-MEL-2 > 100 µM | SW-620 > 100 µM | IGROV-1 > 100 µM | Malme-3M > 100 µM | CCRF-CEM > 100 µM | PC-3 > 100 µM | MDA-MB-231 > 100 µM | ACHN > 100 µM | KM12 > 100 µM | T47D > 100 µM | HCT-116 > 100 µM | HT-29 > 100 µM | OVCAR-5 > 100 µM | HL-60 > 100 µM | RXF 393 > 100 µM

C=C1C(NC)CCC23CC24CCC2(C)C(C(C)=O)C(O)CC2(C)C4CCC13 (stereo unspecified)
inactive: MCF7 70.5 µM | DU-145 > 100 µM | SK-MEL-2 > 100 µM | SW-620 > 100 µM | IGROV-1 > 100 µM | Malme-3M > 100 µM | CCRF-CEM 54.8 µM | PC-3 78 µM | MDA-MB-231 > 100 µM | ACHN > 100 µM | SK-MEL-28 > 100 µM | KM12 56.1 µM | T47D > 100 µM | M14 > 100 µM | HCT-116 70.3 µM | HT-29 21.9 µM | OVCAR-5 > 100 µM | HL-60 62.7 µM | HCC 2998 > 100 µM

— ChEMBL document CHEMBL1201862, “PubChem BioAssay data set” (2004)
